Each structure is given as a SMILES string.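 Where inhibition never reached the appropriate level, the endpoint shown equals the highest concentration tested. Otherwise, values were interpolated linearly from a five-concentration, 48-hour dose response in 96-well plates. At the GI50, growth is halved.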 Active and inactive are the calls of the source. Cut-off read from the data, not from the text of the source: active = GI50 up to about 1.1 µM and inactive = higher. A value given as a limit tells only on which side of the number the result lay.

Some test systems named below: NCI-H23; PC-3; UACC-62; MOLT-4; OVCAR-8; ACHN; HCT-116; IGROV-1; NCI/ADR-RES; UO-31; Malme-3M; NCI-H522; COLO 205; RXF 393; MDA-MB-231; HOP-92; TK-10; A498; T47D; MDA-N.
Common to all, as to experiment: growth of human tumour cells (NCI), 48 h

`Cc1ccc(/N=N/c2c(O)c(C(=O)O)cc3ccccc23)cc1C`: the GI50 in the experiment with NCI-H23, in the experiment with PC-3, in the experiment on UACC-62, in the experiment on MOLT-4, with OVCAR-8 and in the experiment on ACHN was > 100 µM (inactive) each time. Moreover, the GI50 with HCT-116, with IGROV-1, with NCI/ADR-RES, with UO-31, in the experiment on Malme-3M and in the experiment with NCI-H522 was > 100 µM (inactive) each time. The GI50 in the experiment on COLO 205, in the experiment on RXF 393, in the experiment with MDA-MB-231, with HOP-92 and in the experiment on TK-10 was > 100 µM (inactive) each time.
As to `CCCCCCCCCCCCCCCCCC(=O)OCC(CN(C)CCN(C)C)OC(=O)CCCCCCCCCCCCCCCCC` (stereo not drawn), the GI50 with NCI-H23 was > 100 µM (inactive); in the experiment on UACC-62 it was > 100 µM (inactive); with MOLT-4, 27.1 µM (inactive); in the experiment with OVCAR-8, 72.6 µM (inactive); in the experiment with ACHN it was 91.6 µM (inactive); in the experiment with HCT-116, 55.2 µM (inactive). The GI50 in the experiment with IGROV-1, in the experiment on UO-31, in the experiment with Malme-3M, in the experiment on NCI-H522, in the experiment on COLO 205 and in the experiment on RXF 393 was > 100 µM (inactive) throughout. The GI50 in the experiment on HOP-92, with TK-10 and in the experiment with A498 was > 100 µM (inactive) in each case.
As for `C=C1C(=O)OC2CC(C)C(C(CC(C)=O)OC(C)=O)=CCC12` (stereo not drawn), the GI50 is 17.2 µM (inactive) with NCI-H23; 19.3 µM (inactive) in the experiment on PC-3; 11.7 µM (inactive) with UACC-62; 4.07 µM (inactive) with MOLT-4; 18.9 µM (inactive) in the experiment on OVCAR-8; 9.27 µM (inactive) in the experiment with ACHN. Further, the GI50 with HCT-116 is 1.79 µM (inactive); with IGROV-1, 13.3 µM (inactive); in the experiment with NCI/ADR-RES, 13.8 µM (inactive); in the experiment with UO-31, 16.2 µM (inactive); with Malme-3M it was 2.02 µM (inactive); in the experiment on NCI-H522 it was 1.73 µM (inactive). For the same molecule, the GI50 with COLO 205 is 6.82 µM (inactive); with RXF 393, 15.9 µM (inactive); in the experiment with MDA-MB-231 it was 13.5 µM (inactive); with HOP-92, 6.87 µM (inactive); with T47D, 20.4 µM (inactive); in the experiment on TK-10 it was 17.3 µM (inactive). In addition, the GI50 with A498 was 18.7 µM (inactive).
`COc1ccc(OC(=O)CC2Cc3cc(OC)c(OC)c(OC)c3-c3ccc(SC)c(=O)cc32)cc1` (stereo not drawn): the GI50 in the experiment with NCI-H23 is 0.421 µM (active); in the experiment on UACC-62 it was 0.232 µM (active); in the experiment on MOLT-4, 0.387 µM (active); in the experiment on OVCAR-8, 0.27 µM (active); in the experiment on ACHN, 0.792 µM (active); in the experiment on HCT-116, 0.156 µM (active). For the same molecule, the GI50 was 1.85 µM (inactive) in the experiment on IGROV-1; 0.792 µM (active) in the experiment on UO-31; 0.383 µM (active) with Malme-3M; 0.2 µM (active) in the experiment on NCI-H522; 0.403 µM (active) with COLO 205; 0.115 µM (active) in the experiment on RXF 393. Further, the GI50 was 0.467 µM (active) in the experiment on HOP-92, 29.7 µM (inactive) in the experiment on TK-10 and 0.0332 µM (active) in the experiment with A498.
On to `COc1ccc(N2C(=O)C3c4[nH]c5ccc(Br)cc5c4C4CCC(C(C)(C)C)CC4C3C2=O)cc1` (stereo not drawn), for which the GI50 with NCI-H23, in the experiment with PC-3, in the experiment with UACC-62, in the experiment on MOLT-4, in the experiment on OVCAR-8 and in the experiment with ACHN was > 100 µM (inactive) throughout. In addition, the GI50 with HCT-116 is > 100 µM (inactive); with IGROV-1, > 100 µM (inactive); with NCI/ADR-RES, > 100 µM (inactive); with MDA-N, > 100 µM (inactive); in the experiment on Malme-3M it was 91.8 µM (inactive); with NCI-H522, > 100 µM (inactive). For the same molecule, the GI50 is > 100 µM (inactive) with COLO 205; > 100 µM (inactive) with RXF 393; 82 µM (inactive) in the experiment on MDA-MB-231; > 100 µM (inactive) with TK-10; > 100 µM (inactive) in the experiment with A498.
For `CCOC(=O)N1CCc2cc(OC)c(OC)cc2/C1=C/c1ccc(OC)c(OC)c1`, the GI50 was 36.1 µM (inactive) in the experiment on NCI-H23; 55.8 µM (inactive) with UACC-62; 33.2 µM (inactive) in the experiment with MOLT-4; > 10 µM (inactive) with OVCAR-8; 52.2 µM (inactive) with ACHN; 38.4 µM (inactive) with HCT-116. The GI50 with IGROV-1 was > 100 µM (inactive); in the experiment with UO-31 it was 27.8 µM (inactive); with Malme-3M, 20 µM (inactive); in the experiment on NCI-H522, 40.1 µM (inactive); in the experiment on COLO 205, 37.8 µM (inactive); with RXF 393 it was 37.9 µM (inactive). The figures for the GI50 in the experiment with HOP-92, with TK-10 and with A498 were 30.5 µM (inactive), > 100 µM (inactive) and 56.4 µM (inactive), respectively.
In the case of `CSC(SC)=C1Sc2cccc(Cl)c2S1`, the GI50 is 55.2 µM (inactive) in the experiment with NCI-H23; 95.1 µM (inactive) with UACC-62; 31.8 µM (inactive) in the experiment with MOLT-4; 92.5 µM (inactive) in the experiment with OVCAR-8; 74 µM (inactive) in the experiment with ACHN; 41.5 µM (inactive) in the experiment on HCT-116. Further, the GI50 with IGROV-1 is > 100 µM (inactive); with UO-31, 52.5 µM (inactive); in the experiment on Malme-3M, > 100 µM (inactive); in the experiment with NCI-H522 it was 26.1 µM (inactive); with COLO 205, 20.4 µM (inactive); in the experiment on RXF 393, 43.7 µM (inactive). In addition, the values for the GI50 in the experiment with HOP-92, with TK-10 and in the experiment with A498 were 15.8 µM (inactive), 76 µM (inactive) and 76.4 µM (inactive), respectively.
`NC(=O)CCC(NC(=O)c1cccc2c(=O)c3ccccc3[nH]c12)C(=O)O` (stereo not drawn): the GI50 in the experiment on NCI-H23, with PC-3, in the experiment on UACC-62, with MOLT-4, in the experiment on OVCAR-8 and in the experiment with ACHN was > 100 µM (inactive) each time. For the same molecule, the GI50 in the experiment with HCT-116, with IGROV-1, in the experiment on NCI/ADR-RES, in the experiment on UO-31, with MDA-N and in the experiment on Malme-3M was > 100 µM (inactive) throughout. In addition, the GI50 in the experiment on NCI-H522 is > 100 µM (inactive); in the experiment on COLO 205, > 100 µM (inactive); in the experiment on MDA-MB-231, > 100 µM (inactive); with HOP-92, 77.3 µM (inactive); in the experiment on TK-10, > 100 µM (inactive); in the experiment with A498 it was > 100 µM (inactive).
As for `O=C(CNc1ccccc1C(=O)O)Nn1cnc2ccc(S(=O)(=O)Nc3ccccc3C(=O)O)cc2c1=O`, the GI50 in the experiment on NCI-H23, with PC-3, in the experiment with UACC-62, in the experiment on MOLT-4, in the experiment with OVCAR-8 and with ACHN was > 100 µM (inactive) throughout. Further, the GI50 with HCT-116, in the experiment with IGROV-1, in the experiment on NCI/ADR-RES, with UO-31, in the experiment with MDA-N and in the experiment with Malme-3M was > 100 µM (inactive) in each case. Further, the GI50 in the experiment on NCI-H522, with COLO 205, in the experiment with MDA-MB-231, in the experiment on HOP-92 and in the experiment on TK-10 was > 100 µM (inactive) throughout.
Turning to `O=C(O)C1=CCCc2ccc3ccccc3c21`, the GI50 in the experiment with NCI-H23, in the experiment on UACC-62, in the experiment on MOLT-4, with OVCAR-8, in the experiment on ACHN and in the experiment with HCT-116 was > 100 µM (inactive) throughout. The GI50 in the experiment on IGROV-1, with UO-31, with Malme-3M, in the experiment with NCI-H522, in the experiment with COLO 205 and with RXF 393 was > 100 µM (inactive) throughout. In addition, the GI50 in the experiment on HOP-92, in the experiment on TK-10 and with A498 was > 100 µM (inactive) in each case.
On to `O=C(Nc1cc([N+](=O)[O-])cc([N+](=O)[O-])c1)OC1C2CCC1C1OC1C2` (stereo not drawn), for which the GI50 was > 50 µM (inactive) in the experiment with NCI-H23; > 50 µM (inactive) in the experiment with UACC-62; 34.5 µM (inactive) in the experiment on MOLT-4; > 50 µM (inactive) with OVCAR-8; > 50 µM (inactive) in the experiment with ACHN; 35.8 µM (inactive) with HCT-116. The GI50 in the experiment with IGROV-1 is > 50 µM (inactive); in the experiment on UO-31, 19.9 µM (inactive); with Malme-3M, 22.9 µM (inactive); in the experiment with NCI-H522 it was 29.1 µM (inactive); with COLO 205, > 50 µM (inactive); with RXF 393, > 50 µM (inactive). Moreover, the GI50 in the experiment with HOP-92, in the experiment with TK-10 and in the experiment on A498 was > 50 µM (inactive) in each case.
`O=C1C=CC(=C(c2ccc(O)cc2)c2ccc(O)cc2)C=C1` [AURIN]: the GI50 in the experiment with NCI-H23 was 8.57 µM (inactive); with UACC-62, 3.91 µM (inactive); with MOLT-4, 4.71 µM (inactive); in the experiment on OVCAR-8, 12.7 µM (inactive); in the experiment with ACHN, 15.2 µM (inactive); in the experiment with HCT-116, 10.8 µM (inactive). The GI50 with IGROV-1 was 13.6 µM (inactive); in the experiment on UO-31, 17 µM (inactive); in the experiment on Malme-3M it was 12 µM (inactive); in the experiment on NCI-H522, 10.1 µM (inactive); in the experiment with COLO 205, 17.7 µM (inactive); in the experiment with RXF 393, 5.07 µM (inactive). Further, the GI50 in the experiment with HOP-92 was 2.07 µM (inactive); in the experiment with TK-10, 19 µM (inactive); in the experiment with A498 it was 17.7 µM (inactive).
